Data set [1] deals with Cisplatin-induced Acute Kidney Injury In Mice. Briefly: Effect of B4 by different administration routes on cisplatin-induced acute kidney injury in mice. The data set is classed as in vivo, ICR mouse. The settings on record: for BUN / Crea / TP / Urine protein: 4 days; for Reduction of effective dose to reverse cisplatin-induced renal injury, injection compared with oral administration: iv 5 mg/kg versus gavage 100 mg/kg. Here is the method:
Pulsatilla saponin B4 was orally and intravenously administrated in parallel, the effect of Pulsatilla saponin B4 in different administration routes on acute nephritis in cisplatin (CDDP)-stimulated mouse serum was investigated.
The drugs were all prepared into a solution with a specified concentration under “Test Method” with double distilled water and administered in the prescribed manner.
2.2 Modeling method: models were made at a dose of […] of cisplatin, the mice in normal group were injected with physiological saline intraperitoneally and the mice in other groups were injected with cisplatin intraperitoneally.
2.3 Grouping and administration: Animals were randomly divided into seven groups, 10-12 animals in each group:
(3) Dexamethasone positive group (0.5 mg/kg·body weight), dexamethasone solution was administered by gavage at a dose of 20 ml/kg·body weight;
(4) B4 high-dose group administered intravenously (5 mg/kg·body weight), B4 solution was injected into the tail vein at a dose of 5 ml/kg·body weight;
(5) B4 low-dose group administered intravenously (2.5 mg/kg·body weight), B4 solution was injected into the tail vein at a dose of 5 ml/kg·body weight;
(6) B4 high-dose group administered by gavage (100 mg/kg·body weight), B4 solution was given by gavage at a dose of 20 ml/kg·body weight;
(7) B4 low-dose group administered by gavage (50 mg/kg·body weight), B4 solution was given by gavage at a dose of 20 m/kg·body weight;
Drugs were administered continuously for 4 days from the day of modeling.
Urine was collected 0.5 hours after the last administration and urine protein was measured; blood was collected from the eyeball 1 hour after the administration, and the whole blood of the mice was placed at room temperature for 2 hours, centrifuged at 3500 rpm/min for 15 minutes, 200 μl supernatant was measured by an automatic biochemical analyzer to determine the total protein (TP), urea nitrogen (BUN) and creatinine (Cre).

Data set [2] can be described thus: Water solubility of Pulsatilla saponin B4. The class given is physicochemical.
The nature of data set [3]: Compatibility test of raw materials and excipients (high temperature and illumination). The class given is physicochemical. Here is the method: The content of Pulsatilla saponin B4 in the following experimental examples and examples is determined according to the following method:
Chromatographic column: C18, 250 mm×4.6 mm, 5 μm
Mobile phase: acetonitrile-water (26:74) (volume ratio)
An appropriate amount of Pulsatilla saponin B4 control sample was taken, weighed precisely, placed into a 10 ml volumetric flask, added with methanol to dissolve and dilute to the mark, the solution was shaken well and filtered to obtain a solution with 1 mg Pulsatilla saponin B4 control sample/1 ml solution.
About 25 mg of test sample was taken, weighed precisely, placed into a 25 ml volumetric flask, added with the mobile phase to dissolve and dilute to the mark, the solution was shaken well and filtered through a 0.22 μm microporous membrane, the filtrate was taken to obtain the test sample.
10 μl of the test solution was taken and injected into a liquid chromatograph, the chromatogram was recorded. The calculation formula was as follows: […]
Pulsatilla saponin B4 raw material was mixed with various excipients (water for injection, physiological saline, mannitol, lactose, sucrose and glucose) in a ratio of 1:5 (mass), and then placed under the conditions of high temperature (60° C. and 40° C.) and illumination (4500Lux±500), the samples were taken on day 0, 7 and 14 to investigate the purity of Pulsatilla saponin B4 and related substances.

Setting [4] is: dexamethasone 0.5 mg/kg by gavage, serum 1 h after last administration.
[5] abbreviates: B4 iv (tail vein) 2.5 mg/kg, serum.
Where [6] appears, read: B4 po (gavage) 100 mg/kg, serum.
[7] abbreviates: day 0, raw material:excipient 1:5 (mass).
Setting [8] is: day 7, illumination (4500Lux±500).
Setting [9] is: day 14, illumination (4500Lux±500).

Turning to `C[C@@H]1C[C@H]2[C@@H]3CCC4=CC(=O)C=C[C@]4(C)[C@@]3(F)[C@@H](O)C[C@]2(C)[C@@]1(O)C(=O)CO` [Positive control, Dexamethasone, reference compound], in data set [1] (setting [4]), the BUN was determined as 42.97 ± 27.45 mg/dL, the Crea came to 30.10 ± 3.93 µmol/L and the TP is 52.90 ± 2.50 g/L. For the same compound, in data set [1] (dexamethasone 0.5 mg/kg by gavage, serum 1 h after last administration, listed as positive control), the BUN entry is “decreased significantly”. The compound further returned a Urine protein in data set [1] (dexamethasone 0.5 mg/kg by gavage, urine 0.5 h after last administration) of 1.00 ± 0.27 mg/mL. Also, in data set [1] (dexamethasone 0.5 mg/kg by gavage, urine 0.5 h after last administration, listed as positive control), the Urine protein entry is recorded as “decreased significantly”.

In data set [1] (setting [5]), `C=C(C)C1CC[C@]2(C(=O)O[C@@H]3O[C@H](CO[C@@H]4O[C@H](CO)[C@@H](O[C@@H]5O[C@@H](C)[C@H](O)[C@@H](O)[C@H]5O)[C@H](O)[C@H]4O)[C@@H](O)[C@H](O)[C@H]3O)CC[C@]3(C)[C@H](CC[C@@H]4[C@@]5(C)CC[C@H](OC6OC[C@H](O)[C@H](O)[C@H]6O[C@]6(O)O[C@@H](C)[C@H](O)[C@@H](O)[C@H]6O)[C@@](C)(CO)[C@@H]5CC[C@]43C)[C@@H]12` (stereo partly drawn) [Prescription B4, Pulsatilla saponin B4] returned a BUN of 69.26 ± 45.76 mg/dL, a Crea of 29.27 ± 5.66 µmol/L and a TP of 47.58 ± 2.50 g/L. This compound returned a Urine protein in data set [1] (B4 iv (tail vein) 2.5 mg/kg, urine) of 1.35 ± 0.39 mg/mL. The TP in data set [1] (B4 iv (tail vein) 5 mg/kg, serum) was 46.58 ± 2.25 g/L. Besides, in data set [1] (B4 po (gavage) 50 mg/kg, serum), the BUN was 50.1 ± 5.38 mg/dL, the Crea was found to be 30.28 ± 4.77 µmol/L and the TP is 47.69 ± 3.17 g/L. Also, the Urine protein in data set [1] (B4 po (gavage) 50 mg/kg, urine) was 1.37 ± 0.31 mg/mL. In data set [1] (setting [6]), this compound yielded a Crea of 28.17 ± 3.01 µmol/L and a TP of 48.15 ± 3.68 g/L. Moreover, the Urine protein in data set [1] (B4 po (gavage) 100 mg/kg, urine) is 1.19 ± 0.25 mg/mL. In addition, in data set [1], the “Reduction of effective dose to reverse cisplatin-induced renal injury, injection compared with oral administration” value is on record as “at least 20 times”. In addition, in data set [1] (listed as Pulsatilla saponin B4), the “Reduction of effective dose to reverse cisplatin-induced renal injury, injection compared with oral administration” value is reported as 20 times. The water solubility entry in data set [2] is on record as “good water solubility”. Also, in data set [3] (setting [7]), the “Purity (%)” value was determined as 99.10%, the “Related substances (%) Max single impurity” value is on record as 0.40% and the “Related substances (%) Total impurities” value worked out at 0.65%. Moreover, in data set [3] (day 7, 40° C.), the “Content (%) 40° C.” value was 98.96%, the “Related substances (%) 40° C. Max single impurity” value is recorded as 0.40% and the “Related substances (%) 40° C. Total impurities” value came out at 0.64%. Besides, in data set [3] (day 7, 60° C.), the “Content (%) 60° C.” value is listed as 98.93%, the “Related substances (%) 60° C. Max single impurity” value came to 0.41% and the “Related substances (%) 60° C. Total impurities” value was found to be 0.66%. Besides, in data set [3] (setting [8]), the “Content (%) illumination” value was 98.97%, the “Related substances (%) illumination Max single impurity” value is given as 0.40% and the “Related substances (%) illumination Total impurities” value was found to be 0.64%. In data set [3] (day 14, 40° C.), the “Content (%) 40° C.” value is 98.86%, the “Related substances (%) 40° C. Max single impurity” value is 0.41% and the “Related substances (%) 40° C. Total impurities” value stood at 0.63%. In data set [3] (day 14, 60° C.), the “Content (%) 60° C.” value stood at 98.89%, the “Related substances (%) 60° C. Max single impurity” value is reported as 0.41% and the “Related substances (%) 60° C. Total impurities” value was determined as 0.64%. Further, in data set [3] (setting [9]), the “Content (%) illumination” value amounted to 98.95%, the “Related substances (%) illumination Max single impurity” value is on record as 0.42% and the “Related substances (%) illumination Total impurities” value was 0.64%.
